The source of these data is PMC10661773, “Cytotoxic pathways activated by multifunctional thiosemicarbazones targeting sigma-2 receptors in breast and lung carcinoma cells” (Pharmacological Reports, 2023).

In one test the test system is A549. The test can be described thus: Cell viability, MTT assay at 48 h. The note with it: Homo sapiens, A549; MTT, 48 h; read-out: EC50 ± SEM, tumor cells A549. The format is cell-based. The procedure:
(§1) Human MCF7 breast adenocarcinoma (#HTB-22) and human A549 carcinoma (#CCL-85) cell lines, non-tumor human breast (MCF10A, #CRL-10317) and lung (BEAS-2B, #CRL-9482) cells were obtained from American Type Culture Collection (ATCC, Bethesda, MD). MCF7 cells were cultured in DMEM medium (Gibco Thermo Scientific, Waltham, MA; #10,565,018), A549 in HAM’s F12 medium (Gibco Thermo Scientific; #11,765,054), and BEAS-2B in RPMI-1640 medium (Gibco Thermo Scientific; # 61,870,010), all supplemented with 10% v/v fetal bovine serum (FBS; Sigma, St. Louis, MO; #F4135) and 1% v/v penicillin–streptomycin (Sigma; #P4458). MCF10A cells were cultured in DMEM/F12 medium (Gibco Thermo Scientific; #31,331,028) supplemented with 5% v/v horse serum (Sigma; #H1270) and 1% v/v penicillin–streptomycin, 20 ng/mL epidermal growth factor (Sigma, #E4127), 10 µg/mL insulin (Sigma, #I3536), […] hydrocortisone (Sigma, #H0888), 100 ng/mL cholera toxin (Sigma, #C8052). Cells were kept in a humidified incubator at 37 °C with 5% CO2.
(§2) Cell growth was determined using the MTT assay at 48 h. On day 1, 25,000 cells/well were seeded into 96-well plates in a volume of 100 μL. On day 2, the various drug concentrations (1 μM–100 μM) were added. In all experiments, the various drug solvents (EtOH, Sigma, # E7148; DMSO, Sigma, # D8418) were added to each control to evaluate possible cytotoxicity of the solvent. After the established incubation time with drugs (48 h), MTT (0.5 mg/mL, Sigma # M2003) was added to each well, and after 3–4 h incubation at 37 °C, the supernatant was removed. Formazan crystals were solubilized using 100 μl of DMSO/EtOH (1:1) and absorbance values at 570 and 630 nm were determined on the microplate reader Victor 3 from PerkinElmer Life Sciences (Waltham, MA).

Another test has as its system BEAS-2B. The test can be described thus: Cell viability, MTT assay at 48 h. The format is cell-based. The following applies: Homo sapiens, read-out: EC50 ± SEM, normal cells BEAS-2B. On the procedure: as §1, §2
The subject of the next test is MCF10A. Description: Cell viability, MTT assay at 48 h. The note with it: Homo sapiens, MCF-10A, read-out: EC50 ± SEM, normal cells MCF10A. The format is cell-based. On the procedure:
as §1, §2

In another test the test system is MCF7. The test can be described thus: Cell viability, MTT assay at 48 h. The format is cell-based. The following applies: Homo sapiens, MCF7; MTT, 48 h; read-out: EC50 ± SEM, tumor cells MCF7. On the procedure:
as §1, §2
Background: Tetrazolium assays rely on reduction of a dye to a coloured formazan, in cell work by metabolically active cells.

Another test concerns the target T1, P-gp (Homo sapiens, UniProt P08183).
T1 construct: expressed in transfected cells; host or cells: MDCK-MDR1
The test can be described thus: P-gp activity, Calcein-AM assay in MDCK-MDR1 cells. The format is cell-based. The following applies: read-out: P-gp Activity EC50 ± SEM. The procedure: According to a previously reported procedure, MDCK-MDR1 cell lines (50,000 cells per well) were seeded into black CulturePlate 96/wells plate with […] medium and grown overnight to confluence. Aliquots (100 µL) of tested compounds in culture medium, at scalar concentrations ranging from 0,1 to 100 µM, were added to each well. The plate was incubated at 37 °C for 30 min, Calcein-AM in phosphate buffered saline (PBS, […]) was added to each well at a final concentration of […], and the plate was incubated for 30 min. The plate was washed 3 times with […] ice cold PBS, Saline buffer ([…]) was added to each well and the plate was read by a PerkinElmer Victor3 spectrofluorimeter at excitation and emission wavelengths of 485 nm and 535 nm, respectively. Under these conditions, calcein cell accumulation in the absence and in the presence of tested compounds was evaluated, and a fluorescence basal level was estimated by untreated cells. In treated wells, the increase of fluorescence with respect to the basal level was measured, EC50 values were determined by fitting the fluorescence increase percentage versus log[dose] with GraphPad Prism Software 5,0 (GraphPad Software, Inc,: San Diego, CA).

For the next test, the system named is caspase 9 in A549 cells. The test can be described thus: Caspase 9 activity, fluorimetric. The format is cell-based, human. The following applies: A549, 2 h, 50 µM. The procedure: (§3) Activation of caspase 3, caspase 7 and caspase 9 was measured using the Caspase 3/7 Fluorescence Assay kit (Cayman Chemical, Ann Arbor, MI; #10,009,135) and the Caspase 9 fluorimetric assay kit (Enzo Life Science, Roma, Italy; #ALX-850-224). The results were expressed as nmoles of the hydrolyzed substrate of each caspase/mg cellular proteins, according to a previously set titration curve.

The next test has as its system caspase 9 in MCF7 cells. Description: Caspase 9 activity, fluorimetric. The format is cell-based, human. The note with it: MCF7, 2 h, 50 µM. On the procedure:
as §3

In test [1] the test system is A549 cells. The test can be described thus: Mitochondrial ROS, MitoSOX staining. The format is cell-based, human. The note with it: A549, 2 h, 50 µM. On the procedure: (§4) Intramitochondrial reactive oxygen species (ROS) were measured using the MitoSOX fluorescent probe (Invitrogen ThermoScientific, # M36008), according to the manufacturer’s instructions. For total ROS, cells were incubated with 5 µmol/L of 5-(and-6)-chlorometyl-20,70-dichlorodihydro-fluorescein diacetate-acetoxymethyl ester (DCFDA-AM, Sigma, #21,884), as described by Riganti et al. 2015 [21]. The results are expressed as nmoles/mg mitochondrial or cellular proteins, respectively.

Test [2] concerns MCF7 cells. Description: Mitochondrial ROS, MitoSOX staining. The format is cell-based, human. The following applies: MCF7, 2 h, 50 µM. The procedure: as §4
The test system of the next test is MCF7 and A549 cells. Description: Whole cell ROS, DCFDA-AM probe. The format is cell-based, human. The following applies: MCF7 and A549, 2 h, 50 µM. The procedure:
as §4

The test system of test [3] is A549 cells. Description: Mitochondrial depolarization, JC-1 staining. The format is cell-based, human. The following applies: A549, 2 h, 50 µM. The procedure:
(§5) Staining with the JC-1 fluorescent probe (Biotium Inc., Freemont, CA; #30,001-30001-T) was performed as described in Riganti et al. 2015 [21]. Fluorescence units were used to calculate the percentage of green-fluorescent (i.e., depolarized) mitochondria vs red-fluorescent (i.e., polarized) mitochondria.

The subject of test [4] is MCF7 cells. The test can be described thus: Mitochondrial depolarization, JC-1 staining. The format is cell-based, human. The following applies: MCF7, 2 h, 50 µM. The procedure:
as §5

T1 sequence (P08183 whole entry): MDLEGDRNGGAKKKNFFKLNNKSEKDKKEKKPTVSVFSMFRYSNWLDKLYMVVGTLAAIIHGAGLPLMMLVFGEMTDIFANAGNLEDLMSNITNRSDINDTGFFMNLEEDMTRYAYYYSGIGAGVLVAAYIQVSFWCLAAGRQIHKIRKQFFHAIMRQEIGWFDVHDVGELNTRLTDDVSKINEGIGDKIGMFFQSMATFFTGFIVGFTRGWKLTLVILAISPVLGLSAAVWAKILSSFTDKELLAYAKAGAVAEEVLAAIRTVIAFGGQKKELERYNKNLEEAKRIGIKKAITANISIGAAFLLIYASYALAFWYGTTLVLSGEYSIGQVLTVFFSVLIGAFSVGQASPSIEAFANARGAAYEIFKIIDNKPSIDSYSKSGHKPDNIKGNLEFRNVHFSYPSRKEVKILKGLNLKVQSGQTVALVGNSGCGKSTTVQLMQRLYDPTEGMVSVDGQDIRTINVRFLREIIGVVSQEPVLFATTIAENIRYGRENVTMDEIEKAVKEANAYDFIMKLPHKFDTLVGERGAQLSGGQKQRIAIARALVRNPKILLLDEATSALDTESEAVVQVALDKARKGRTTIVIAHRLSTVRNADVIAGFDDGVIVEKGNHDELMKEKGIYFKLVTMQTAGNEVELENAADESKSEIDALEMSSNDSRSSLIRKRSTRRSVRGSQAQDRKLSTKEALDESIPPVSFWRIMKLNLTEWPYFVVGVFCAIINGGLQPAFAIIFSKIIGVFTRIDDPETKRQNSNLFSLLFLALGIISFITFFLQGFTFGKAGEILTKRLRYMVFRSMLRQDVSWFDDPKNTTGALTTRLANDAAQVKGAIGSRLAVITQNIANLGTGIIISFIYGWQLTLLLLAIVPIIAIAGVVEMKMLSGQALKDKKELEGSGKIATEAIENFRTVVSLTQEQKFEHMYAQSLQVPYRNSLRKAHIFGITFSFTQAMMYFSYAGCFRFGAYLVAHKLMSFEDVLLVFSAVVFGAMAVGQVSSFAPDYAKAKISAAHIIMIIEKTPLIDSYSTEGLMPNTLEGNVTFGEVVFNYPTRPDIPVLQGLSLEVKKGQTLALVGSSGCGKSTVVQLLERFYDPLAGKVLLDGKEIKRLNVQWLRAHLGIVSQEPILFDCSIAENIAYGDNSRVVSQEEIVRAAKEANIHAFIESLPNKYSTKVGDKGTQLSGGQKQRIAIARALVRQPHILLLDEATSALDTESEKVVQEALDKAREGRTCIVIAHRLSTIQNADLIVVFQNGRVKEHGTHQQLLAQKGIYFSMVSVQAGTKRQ

As a reminder, the EC50 is the concentration needed to bring the measured effect to its halfway point. Consider `CN(C)C(=S)N/N=C1\C(=O)N(CCCCN2CCC3(CC2)OCc2ccccc23)c2ccccc21` [FA4, (Z)-2-(1-(4-(3H-spiro[isobenzofuran-1,4′-piperidine]-1′-yl)butyl)-2-oxoindolin-3-ylidene)-N,N-dimethylhydrazinecarbothioamide], for which the EC50 in the test on A549 was 1.84 ± 0.4 µM; in the test on BEAS-2B, 4.47 ± 1.1 µM; with MCF10A it was 4.31 ± 0.7 µM; with MCF7, 1.53 ± 0.3 µM; at P-gp, 3.8 µM. Also, the “Caspase 9 activation” value with caspase 9 in A549 cells and in the test with caspase 9 in MCF7 cells was “activate” each time. Moreover, the “Rank order of caspase 9 activation” value in the test with caspase 9 in MCF7 cells was “FA4 > MLP44 > PS3 > ACThio1”. The “Mitochondrial ROS (MitoSOX)” value in the test on A549 cells [1] and in the test on MCF7 cells [2] was “increased” in each case. Also, in the test with MCF7 and A549 cells, the “ROS levels in whole cells (DCFDA-AM)” value is reported as “higher”. In addition, the “Mitochondrial depolarization (JC-1 staining)” value with A549 cells [3] is recorded as “totally insensitive”; in the test on MCF7 cells [4], “strong depolarization”.
